Experimental data from ChEMBL document CHEMBL3593238, “Selenorhodamine photosensitizers with the Texas-red core for photodynamic therapy of cancer cells” (Bioorg Med Chem, 2015).
Calls of active or inactive are those of the source. No cut-off for these calls is given here.

Legend:
[1] = Ratio of LD50 for dark toxicity in mouse Colon 26 cells to EC50 for photo-toxicity in mouse Colon 26 cells at 15 Jcm'-2 of continuous illumination with 630 +/- 2 nm laser light; format: cell-based; settings: read-out: Ratio LD50/EC50
[2] = Dark toxicity in mouse Colon 26 cells expressing p-glycoprotein assessed as cell viability incubated for 1 hr followed by incubated for 48 hrs in fresh medium by sulforhodamine B assay; format: cell-based; settings: read-out: LD50
[3] = system: Colon 26; experiment: Photo-toxicity in mouse Colon 26 cells assessed as cell viability at 1 Jcm'-2 of continuous illumination with 630 +/- 2 nm laser light incubated for 48 hrs by sulforhodamine B assay; format: functional, cell-based; settings: for EC50: Colon 26, 48 h
[4] = system: Colon 26; experiment: Photo-toxicity in mouse Colon 26 cells assessed as cell viability at 0.5 Jcm'-2 of continuous illumination with 630 +/- 2 nm laser light incubated for 48 hrs by sulforhodamine B assay; format: functional, cell-based; settings: for EC50: Colon 26, 48 h
[5] = n-Octanol-water partition coefficient, log P of the compound at pH 7.4 by shake flask method; format: physicochemical
[6] = system: Colon 26; experiment: Drug uptake in mouse Colon 26 cells expressing p-glycoprotein at 2 x 10^-7 M after 15 mins by flow cytometry in presence of 1 x 10^-4 M of verapamil; format: ADME, cell-based; settings: colon 26, 0.25 h, 0.2 µM
[7] = Cellular uptake in mitochondria of mouse Colon 26 cells expressing p-glycoprotein using MitoTracker Green after 15 mins by flow cytometry; format: ADME; settings: colon 26, 0.25 h
[8] = system: Colon 26; experiment: Photo-toxicity in mouse Colon 26 cells assessed as cell viability up to 5 Jcm'-2 of continuous illumination with 630 +/- 2 nm laser light incubated for 48 hrs by sulforhodamine B assay; format: functional, cell-based; settings: Colon 26, 48 h
[9] = Ratio of LD50 for dark toxicity in mouse Colon 26 cells to EC50 for photo-toxicity in mouse Colon 26 cells at 1 Jcm'-2 of continuous illumination with 630 +/- 2 nm laser light; format: cell-based; settings: read-out: Ratio LD50/EC50
[10] = system: Colon 26; experiment: Drug uptake in mouse Colon 26 cells expressing p-glycoprotein at 2 x 10^-7 M after 15 mins by flow cytometry in absence of verapamil; format: ADME, cell-based; settings: colon 26, 0.25 h, 0.2 µM

**Q.** For `CN(C)c1ccc(-c2cc(-c3ccccc3)[se+]c(-c3ccc(N)cc3)c2)cc1`, which selectivity ratio [1] is on record?
**A.** 13

**Q.** And the CC50 at 1 h [2]?
**A.** 2600 nM

**Q.** For `CN(C)c1ccc(-c2cc(-c3ccc(N)cc3)[se+]c(-c3ccc(N)cc3)c2)cc1`, which selectivity ratio [1] is on record?
**A.** 3.8

**Q.** With `CN(C)c1ccc(-c2cc(-c3ccccc3)[s+]c(-c3ccc(N)cc3)c2)cc1` as the compound, how does the Activity [3] read?
**A.** inactive

**Q.** What about the Activity [4] of the same compound?
**A.** inactive

**Q.** And the CC50 at 1 h [2]?
**A.** 70 nM

**Q.** Which results are given for `O=C(c1ccc(C2=c3cc4c5c(c3[Se]c3c2cc2c6c3CCCN6CCC2)CCC[N+]=5CCC4)s1)N1CCCCC1.[Cl-]`?
**A.** logD [5]: 3.71; EC50 [3]: 38.8 nM; fold change (FC) [6]: 7.6; EC50 [4]: 79 nM; Drug uptake [7]: Active; EC50 [8]: 50 nM; CC50 at 1 h [2]: 2240 nM; selectivity ratio [9]: 58; Drug uptake [10]: Active

**Q.** Which results are given for `S=C(c1ccc(C2=c3cc4c5c(c3[Se]c3c2cc2c6c3CCCN6CCC2)CCC[N+]=5CCC4)s1)N1CCCCC1.[Cl-]`?
**A.** logD [5]: 4.1; EC50 [3]: 29 nM; fold change (FC) [6]: 2.9; EC50 [4]: 56 nM; Drug uptake [7]: Active; EC50 [8]: 50 nM; CC50 at 1 h [2]: 1530 nM; selectivity ratio [9]: 53; Drug uptake [10]: Active
